Our source for the IC50 and Ratio values is ChEMBL document CHEMBL1125650, “Relationships between the structure of taxol analogues and their antimitotic activity” (J Med Chem, 1991).

≈ marks a conversion by molar mass, not a printed value. Some results are limits rather than exact numbers.

The test system of one assay is P388. In words: The concentration required to 50% inhibition of the P388 leukemic cell proliferation. Format: functional, cell-based. To be noted: Mus musculus.
The nature of assay [1]: Cytotoxicity was measured as ratio of its IC50 value to that of compound 13a. The assay is classed as functional.
The species entered for another assay is Sus scrofa. In words: Ratio of the concentration leading to a 50% inhibition of the rate of pig brain microtubule disassembly to that of taxol (0.4 uM) was determined. Format: functional.
A short description of assay [2]: Ratio of the concentration of compound leading to a 50% inhibition of the rate of pig brain microtubule disassembly to that of compound 13a was determined. Format: functional.

On to `CC(=O)O[C@@]12CO[C@@H]1C[C@H](O)[C@@]1(C)C(=O)[C@H](O)C3=C(C)[C@@H](OC(=O)[C@@H](O)[C@H](NC(=O)OC(C)(C)C)c4ccccc4)C[C@@](O)([C@@H](OC(=O)c4ccccc4)[C@H]21)C3(C)C`, for which the half-inhibitory concentration (IC50) (usually the concentration that inhibits the measured activity by half) with P388 is more than 10 µg/mL. For the same compound, the Ratio in assay [1] is more than 77; in the assay listed under Sus scrofa it was 30; in assay [2] it was 60.

In the assay with P388, `CC(=O)O[C@@]12CO[C@@H]1C[C@H](O)[C@@]1(C)C(=O)[C@H](O)C3=C(C)[C@@H](OC(=O)C(NC(=O)OC(C)(C)C)C(O)c4ccccc4)C[C@@](O)([C@@H](OC(=O)c4ccccc4)[C@H]21)C3(C)C` (some centres not stated) yielded an IC50 of 4 µg/mL (≈ 4.95 µM). Further, the Ratio in assay [1] was found to be 31; in the assay filed under Sus scrofa it was 10; in assay [2] it was 20.

The compound `CC(=O)O[C@H]1C(=O)[C@@]2(C)[C@H]([C@H](OC(=O)c3ccccc3)[C@]3(O)C[C@H](OC(=O)[C@H](O)[C@@H](NC(=O)OC(C)(C)C)c4ccccc4)C(C)=C1C3(C)C)[C@]1(OC(C)=O)CO[C@@H]1C[C@@H]2O` registered a 50% inhibitory concentration (IC50) with P388 of 0.17 µg/mL (≈ 0.2 µM). The Ratio in assay [1] was 1.3; in the assay filed under Sus scrofa, 0.5; in assay [2], 1.

Take `CC(=O)O[C@H]1C(=O)[C@@]2(C)[C@H]([C@H](OC(=O)c3ccccc3)[C@]3(O)C[C@H](OC(=O)[C@H](NC(=O)c4ccccc4)[C@@H](O)c4ccccc4)C(C)=C1C3(C)C)[C@]1(OC(C)=O)CO[C@@H]1C[C@@H]2O`: the IC50 with P388 is 6 µg/mL (≈ 7.03 µM). The figures for the Ratio (in assay [1]; in the assay listed under Sus scrofa; in assay [2]) were 46, 10 and 20, respectively.

Regarding `CC(=O)O[C@@]12CO[C@@H]1C[C@H](O)[C@@]1(C)C(=O)[C@H](O)C3=C(C)[C@@H](OC(=O)[C@H](O)[C@@H](NC(=O)OC(C)(C)C)c4ccccc4)C[C@@](O)([C@@H](OC(=O)c4ccccc4)[C@H]21)C3(C)C.O.O.O` [DOCETAXEL], the IC50 in the assay on P388 was 0.13 µg/mL. Further, the figures for the Ratio (in assay [1]; in the assay filed under Sus scrofa; in assay [2]) were 1, 0.5 and 1, respectively.

With `CC(=O)O[C@H]1C(=O)[C@@]2(C)[C@H]([C@H](OC(=O)c3ccccc3)[C@]3(O)C[C@H](OC(=O)[C@@H](O)[C@H](NC(=O)c4ccccc4)c4ccccc4)C(C)=C1C3(C)C)[C@]1(OC(C)=O)CO[C@@H]1C[C@@H]2O`, the half-inhibitory concentration (IC50) with P388 amounted to 7 µg/mL (≈ 8.2 µM). In addition, the Ratio in assay [1] is 54; in the assay listed under Sus scrofa, 4.5; in assay [2], 9.

In the assay on P388, `CC(=O)O[C@@]12CO[C@@H]1C[C@H](OC(=O)CN)[C@@]1(C)C(=O)[C@H](OC(=O)CN)C3=C(C)[C@@H](OC(=O)C(O)C(NC(=O)OC(C)(C)C)c4ccccc4)C[C@@](O)([C@@H](OC(=O)c4ccccc4)[C@H]21)C3(C)C` (some centres not stated) returned an IC50 of 0.19 µg/mL (≈ 0.206 µM). In addition, the Ratio was found to be 1.5 in assay [1], 1.2 in the assay listed under Sus scrofa and 1.4 in assay [2].

In turn, `CC(=O)O[C@@]12CO[C@@H]1C[C@H](O)[C@@]1(C)C(=O)[C@H](O)C3=C(C)[C@@H](OC(=O)C(O)C(NC(=O)c4ccc(S(=O)(=O)O)cc4)c4ccccc4)C[C@@](O)([C@@H](OC(=O)c4ccccc4)[C@H]21)C3(C)C` (some centres not stated) gave an IC50 with P388 of more than 4 µg/mL. In addition, the Ratio in assay [1] was more than 31; in the assay filed under Sus scrofa, 5.5; in assay [2] it was 11.

In the assay with P388, `CC(=O)O[C@H]1C(=O)[C@@]2(C)[C@H]([C@H](OC(=O)c3ccccc3)[C@]3(O)C[C@H](OC(=O)[C@H](O)[C@@H](NC(=O)c4ccccc4)c4ccccc4)C(C)=C1C3(C)C)[C@]1(OC(C)=O)CO[C@@H]1C[C@@H]2O` [PACLITAXEL] returned an IC50 of 0.27 µg/mL (≈ 0.316 µM). For the same compound, in assay [2], the Ratio was 2.

In turn, `CC(=O)O[C@@]12CO[C@@H]1C[C@H](OC(=O)C(N)Cc1ccccc1)[C@@]1(C)C(=O)[C@H](O)C3=C(C)[C@@H](OC(=O)C(O)C(NC(=O)OC(C)(C)C)c4ccccc4)C[C@@](O)([C@@H](OC(=O)c4ccccc4)[C@H]21)C3(C)C` (some centres not stated) showed a half-maximal inhibitory concentration (IC50) in the assay with P388 of 0.12 µg/mL (≈ 0.126 µM). Also, the Ratio in assay [1] is 1; in the assay listed under Sus scrofa it was 1; in assay [2], 2.

As for `CC(=O)O[C@@]12CO[C@@H]1C[C@H](O)[C@@]1(C)C(=O)[C@H](O)C3=C(C)[C@@H](OC(=O)[C@@H](O)Cc4ccccc4)C[C@@](O)([C@@H](OC(=O)c4ccccc4)[C@H]21)C3(C)C`, in the assay filed under Sus scrofa, the Ratio is on record as 3.5.

For the compound `CC(=O)O[C@H]1C(=O)[C@@]2(C)[C@H]([C@H](OC(=O)c3ccccc3)[C@]3(O)C[C@H](OC(=O)C(O)C(C)O)C(C)=C1C3(C)C)[C@]1(OC(C)=O)CO[C@@H]1C[C@@H]2O` (some centres not stated), the Ratio in the assay listed under Sus scrofa is 60.

Take `CC(=O)O[C@@]12CO[C@@H]1C[C@H](O)[C@@]1(C)C(=O)[C@H](O)C3=C(C)[C@@H](OC(=O)[C@H](O)[C@@H](NC(=O)c4ccccc4)c4ccccc4)C[C@@](O)([C@@H](OC(=O)c4ccccc4)[C@H]21)C3(C)C`: in the assay filed under Sus scrofa, the Ratio was 1.3.

On to `CC(=O)O[C@@]12CO[C@@H]1C[C@H](O)[C@@]1(C)C(=O)[C@H](O)C3=C(C)[C@@H](OC(=O)CCc4ccccc4)C[C@@](O)([C@@H](OC(=O)c4ccccc4)[C@H]21)C3(C)C`, for which the Ratio in the assay filed under Sus scrofa was 17.
